Four compounds from patent publication US20080070942A1, “PRAZOLE DERIVATIVES AND SALTS THEREOF AND USE OF SAME” (JIANGSU HANSEN PHARMACEUTICAL CO., LTD., priority 2004, published 2008) can be followed below.

The AUC is the area under the concentration-time curve, a measure of exposure. In general, Cmax refers to the highest concentration seen after dosing. By MRT is commonly meant a mean duration of stay, worked out from the concentration-time curve. The half-life is the time in which the quantity being followed falls by half.

The test system of data set [1] is gastric acid secretion model induced by pylorus ligation in rats. Briefly: Effect on gastric acid secretion model induced by pylorus ligation in rats. Particulars: pylorus-ligated rats, 5 hours after operation. It counts as in vivo, Wistar rat. On the procedure: Wistar rat, weight 180-220 g, male, obtained from Institute of Zoology, Chinese Academy of Medical Sciences. Sodium rabeprazole, compound (II) of the present invention and tenatoprazole, provided by Jiangsu Hansen Pharmaceutical Co., Ltd. Added 1 drop of Tween-80 as a solubilizing assistant and prepared the required concentrations with distilled water. Methods: 48-hour fasting rats were divided into groups randomly. Pylon ligation was carried out under ether anaesthesia. […] The rats were sacrificed at 5 hours after the operation and the gastric juice was collected and measured. The content of HCl in gastric juice is determined by titration with 0.1 mol/L NaOH and the significance test was made by t-programme.

Data set [2] relates to gastric ulcer model induced by acetic acid in rats. Briefly: Chronic gastric ulcer model induced by acetic acid in rats. The data set is classed as in vivo. The note with it: x ± s. On the procedure: Methods: Abdominal cavities of fasting rats were cut under the anaesthesia of sodium pentobarbital and gently stretched the stomachs. The glandular stomachs near pylons were injected with 20 μl 30% acetic acid and then the abdominal cavities were re-closed. At the day the operation finished, rats were randomly divided into groups and started to be administered with drugs of 10 ml/kg once a day for 10 continuous days. Rats were then sacrificed in the following day when the last drug was administered, and stomachs were taken out and were injected with 10 ml water, and then were put into 3% formaldehyde solution to be fixed for 30 minutes. The stomachs were dissected along their greater curvatures and stretched on a glass plate and the ulcer areas were measured. The significance test was made by t-programme.

A further data set is described as follows: in vivo. Particulars: dog, 5 mg/kg. The method, then: Methods: Six healthy male beagle dogs with weight 5.5˜6.7 kg were randomly divided into three groups for triple cross over administration. They were perfused with rabeprazole, tenatoprazole and compound (II) respectively after one-night fasting. The dose of each drug was 5 mg/kg. Each dog was fed with 50 ml water by gastric perfusion after administration of the drug. 2 ml blood was taken respectively from forelimb saphenous vein at 0.25, 0.5, 1, 2, 3, 4, 5, 6, 7, 8, 10, 12 hours after tenatoprazole was administered, at 5, 10, 20, 30, 40, 50, 60, 75, 90, 120, 180 minutes after rabeprazole was administered, and at 1, 2, 3, 3.5, 4, 4.5, 5, 6, 7, 8, 10, 12 hours after compound (II) was administered, and then put each blood sample in each test tube treated with EDTA, then centrifuging for 10 min at 3500 rpm. The upper plasma was removed from the test tube into another test tube containing 50 μl 2% NaOH solution and reserved at −20[…]. The plasma drug concentration was determined by HPLC. Cross-over administration to dogs was performed one week later.
The calculation method for pharmacokinetic parameters: compartment model is estimated by software DAS1.0. […] T½=0.693/λz, Tmax and Cmax are are measured values.

In data set [3] the test system is gastric ulcer model induced by anhydrous ethanol in rats. Briefly: Gastric ulcer model induced by anhydrous ethanol in rats. Also on record: Ulcer area: unit not given beside the values. Particulars: for ulcer areas, effect in words: anhydrous ethanol ulcer. It counts as in vivo, Wistar rat. On the procedure: Wistar rat, weight: 180-220 g, male, obtained from Institute of Zoology, Chinese Academy of Medical Sciences. Compound (I) and Compound (II) of the present invention and sodium rabeprazole, provided by Jiangsu Hansen Pharmaceutical Co., Ltd. The required concentration is prepared with distilled water and the volume for administration of drug is 10 ml/kg. Methods: 40-hour fasting rats were randomly divided into groups and treated with different doses of sodium rabeprazole, compound (I), compound (II) and distilled water (as control) by gastric perfusion, respectively. After 0.5 hour, each rat was administered with 1 ml anhydrous ethanol and then rats were sacrificed 1 hour later. The stomachs were taken out and injected with 10 ml fix solution. After fixed in 3% formaldehyde solution, the stomachs were dissected and the ulcer areas were measured. The significance test was made by t-programme.

In data set [4] the test system is ulcer model induced by indomethacin in rats. Briefly: Gastric ulcer model induced by indomethacin in rats. The data set is classed as in vivo, Wistar rats. On the procedure:
Wistar rats, weight: 180-220 g, same number of male and female, provided by Institute of Zoology, Chinese Academy of Medical Sciences. (Certification of Qualification of Animal: scxk Beijing 2000-0006) 0.5% methylcellulose sodium: 2 g/L NaHCO3 is contained and pH value is adjusted to 9.0 with NaOH. Preparation: The drug was porphyrized and diluted with 0.5% methylcellulose sodium to the required concentration. It must be used up in 30 minutes. Methods: Sixty 48-hour fasting rats were divided into six groups and gastric-perfused with different doses of compound (II), sodium rabeprazole and 0.5% methylcellulose sodium (as control), respectively. After 0.5 hour, 20 mg/kg indomethacin was injected into the abdominal cavities. Six hours later, rats were sacrificed by cervical dislocation and the stomachs were taken out. After injected with 10 ml water, stomachs were then fixed in 3% formaldehyde solution. The hemorrhagic spots were counted. A significance test was carried out by t-programme.

The test system of data set [5] is ulcer rat models induced by pylori ligation. Briefly: Ulcer model induced by pylori ligation in rats. It counts as in vivo. The method, then:
Methods: Sixty 40 hour-fasting rats were divided into 6 groups according to Table 2. A pylori ligation operation was carried out under the anaesthesia of ether. […] The stomachs were dissected and the number of gastric ulcers was counted. The result was tested by a significance test of t-programme.

[6] abbreviates: 6.7 μmol/kg through the duodenum.
Setting [7] is: 20.0 μmol/kg through the duodenum.
The mark [8] stands for this setting: 20 μmol/kg once a day for 10 days.
Setting [9] is: 60 μmol/kg once a day for 10 days.
Setting [10] is: 3 mg/kg by gastric perfusion 0.5 hour before 1 ml anhydrous ethanol.
Where [11] appears, read: 10 mg/kg by gastric perfusion 0.5 hour before 1 ml anhydrous ethanol.

Marks after values point to notes of the source that are not given here.

As for `COc1ccc2[nH]c([S+]([O-])Cc3ncc(C)c(OC)c3C)nc2n1` (stereo not drawn) [Tenatoprazole, tenatoprazole], the “Amount of gastric acid” value is 0.16 ± 0.06 mmol/stomach in data set [1] (setting [6]) and 0.14 ± 0.03 mmol/stomach in data set [1] (setting [7]). Besides, the “Amount of gastric juice” value in data set [1] (setting [6]) is recorded as 2.8 ± 0.7 ml/stomach; in data set [1] (setting [7]), 2.8 ± 0.5 ml/stomach. The values for the Ulcer area in data set [2] (setting [8]) and in data set [2] (setting [9]) were 7.6 ± 3.6 mm^2 and 5.8 ± 3.6* mm^2, respectively. The AUC in the data set “in vivo” (male, beagle, po, AUC) worked out at 18000 ng·h/mL; in “in vivo” (male, beagle, po, AUC^12), 16900 ng·h/mL. The same compound showed a Cmax in the data set “in vivo” (male, beagle, po, Cmax) of 4280 ng/mL. This compound had an MRT in “in vivo” (male, beagle, po, MRT) of 5.4 h. In addition, the half-life in “in vivo” (male, beagle, po, T1/2) was 3.74 h.

For the compound `COCCCOc1ccnc(C[S+]([O-])c2nc3ccccc3[nH]2)c1C` (stereo not drawn) [rabeprazole], the half life result in “in vivo” is given as “less than half hour”.

For `COCCCOc1ccnc(C[S+]([O-])c2nc3cc(OC(F)F)ccc3[n-]2)c1C.[Na+]` (stereo not drawn) [Compound (I)], the figures for the Ulcer area in data set [3] (setting [10]) and in data set [3] (setting [11]) were 12.1 ± 18.1 and 5.5 ± 9.9, respectively. Also, the “ulcer areas, effect in words” value in data set [3] is recorded as “more significant effect”.

Regarding `COCCCOc1ccnc(C[S+]([O-])c2nc3ccccc3[nH]2)c1C` (stereo not drawn) [Sodium Rabeprazole], the “Amount of gastric acid” value in data set [1] (setting [6]) was 0.25 ± 0.10 mmol/stomach; in data set [1] (setting [7]), 0.17 ± 0.08 mmol/stomach. The “Amount of gastric juice” value in data set [1] (setting [6]) came to 4.0 ± 0.7 ml/stomach; in data set [1] (setting [7]), 3.7 ± 0.8 ml/stomach. The Ulcer area in data set [3] (setting [10]) is reported as 26.4 ± 20.6; in data set [3] (setting [11]), 11.1 ± 2.7; in data set [2] (setting [8]), 6.2 ± 3.5 mm^2; in data set [2] (setting [9]), 4.8 ± 3.1** mm^2. Further, in data set [3], the “ulcer areas, effect in words” value is “reduced”. Besides, the No. of ulcers stood at 3.1 ± 4.6 in data set [4] (40 μmol/kg gastric perfusion, indomethacin 20 mg/kg, x ± s) and 8.9 ± 14.7 in data set [5] (40 μmol/kg through duodenum, pylori ligation, 18 hours, x ± s). In addition, the Inhibition rate worked out at 72.3% in data set [4] (40 μmol/kg, indomethacin ulcer) and 63.2% in data set [5] (40 μmol/kg, pylori ligation ulcer). The “hemorrhagic spots on gastric mucosal induced by indomethacin, effect in words” value in data set [4] (gastric perfusion) is “lower than that of compound (II)”. Besides, in data set [5] (pylori ligation ulcer), the “ulcers in the rats, effect in words” value is listed as “essentially same function”.
